# Reference: ChEMBL document CHEMBL1909046, “DrugMatrix in vitro pharmacology data”
# Assays:
# Cytochrome P450 2C19 = Cytochrome P450 2C19 (Homo sapiens, UniProt P33261); conditions: bti-tn-5b1-4; further: in other assays of this panel Not Active means under 50% inhibition at 10 µM
# [1] = target: Beta-3 adrenergic receptor (Homo sapiens, UniProt P13945); test: DRUGMATRIX: Adrenergic beta3 radioligand binding (ligand: [125I] Cyanopindolol); type: cell membranes, HEK293, Membrane; conditions: hek293; Not Active = under 50% inhibition at 10 µM
# Substance-P receptor = Substance-P receptor (Homo sapiens, UniProt P25103); type: cell membranes, CHO, Membrane; conditions: cho; further: in other assays of this panel Not Active means under 50% inhibition at 10 µM
# [2] = DRUGMATRIX: Serotonin (5-Hydroxytryptamine) 5-HT3 radioligand binding (ligand: [3H] GR-65630); type: cell membranes, Membrane; conditions: hek293; Not Active = under 50% inhibition at 10 µM
# [3] = DRUGMATRIX: Glutamate, Kainate radioligand binding (ligand: [3H] Kainic acid); type: cell membranes, Rattus norvegicus, Wistar, Brain, Membrane; conditions: Not Active = under 50% inhibition at 10 µM
# [4] = DRUGMATRIX: Potassium Channel [KATP] radioligand binding (ligand: [3H] Glyburide); type: cell membranes, Membrane; conditions: hit-t15; Not Active = under 50% inhibition at 10 µM
# Endothelin-1 receptor = target: T1, Endothelin-1 receptor (Homo sapiens, UniProt P25101); type: cell membranes, Membrane; conditions: cho-k1; further: in other assays of this panel Not Active means under 50% inhibition at 10 µM
# T1 sequence (P25101 whole entry): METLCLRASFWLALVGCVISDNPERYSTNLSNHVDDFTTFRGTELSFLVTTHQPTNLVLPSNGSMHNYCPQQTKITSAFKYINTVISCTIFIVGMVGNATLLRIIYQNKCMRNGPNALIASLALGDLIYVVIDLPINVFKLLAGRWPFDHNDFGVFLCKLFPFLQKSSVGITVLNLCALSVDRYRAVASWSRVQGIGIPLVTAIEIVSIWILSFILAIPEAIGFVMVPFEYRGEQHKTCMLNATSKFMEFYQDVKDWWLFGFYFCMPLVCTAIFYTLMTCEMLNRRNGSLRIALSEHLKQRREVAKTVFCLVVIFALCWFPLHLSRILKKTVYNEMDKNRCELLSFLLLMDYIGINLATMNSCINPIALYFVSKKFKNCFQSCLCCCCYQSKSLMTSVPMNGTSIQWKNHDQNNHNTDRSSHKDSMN
# [5] = target: Prostaglandin G/H synthase 1 (Homo sapiens, UniProt P23219); test: biochemical; type: tissue-based, Platelet;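 further: inhibition of COX-1 enzyme activity, with arachidonic acid supplied as substrate; in other assays of this panel Not Active means under 50% inhibition at 10 µM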
# [6] = target: T2, Angiotensin-converting enzyme (Oryctolagus cuniculus, UniProt P12822); test: biochemical; type: tissue-based, Lung
# T2 sequence (P12822 whole entry): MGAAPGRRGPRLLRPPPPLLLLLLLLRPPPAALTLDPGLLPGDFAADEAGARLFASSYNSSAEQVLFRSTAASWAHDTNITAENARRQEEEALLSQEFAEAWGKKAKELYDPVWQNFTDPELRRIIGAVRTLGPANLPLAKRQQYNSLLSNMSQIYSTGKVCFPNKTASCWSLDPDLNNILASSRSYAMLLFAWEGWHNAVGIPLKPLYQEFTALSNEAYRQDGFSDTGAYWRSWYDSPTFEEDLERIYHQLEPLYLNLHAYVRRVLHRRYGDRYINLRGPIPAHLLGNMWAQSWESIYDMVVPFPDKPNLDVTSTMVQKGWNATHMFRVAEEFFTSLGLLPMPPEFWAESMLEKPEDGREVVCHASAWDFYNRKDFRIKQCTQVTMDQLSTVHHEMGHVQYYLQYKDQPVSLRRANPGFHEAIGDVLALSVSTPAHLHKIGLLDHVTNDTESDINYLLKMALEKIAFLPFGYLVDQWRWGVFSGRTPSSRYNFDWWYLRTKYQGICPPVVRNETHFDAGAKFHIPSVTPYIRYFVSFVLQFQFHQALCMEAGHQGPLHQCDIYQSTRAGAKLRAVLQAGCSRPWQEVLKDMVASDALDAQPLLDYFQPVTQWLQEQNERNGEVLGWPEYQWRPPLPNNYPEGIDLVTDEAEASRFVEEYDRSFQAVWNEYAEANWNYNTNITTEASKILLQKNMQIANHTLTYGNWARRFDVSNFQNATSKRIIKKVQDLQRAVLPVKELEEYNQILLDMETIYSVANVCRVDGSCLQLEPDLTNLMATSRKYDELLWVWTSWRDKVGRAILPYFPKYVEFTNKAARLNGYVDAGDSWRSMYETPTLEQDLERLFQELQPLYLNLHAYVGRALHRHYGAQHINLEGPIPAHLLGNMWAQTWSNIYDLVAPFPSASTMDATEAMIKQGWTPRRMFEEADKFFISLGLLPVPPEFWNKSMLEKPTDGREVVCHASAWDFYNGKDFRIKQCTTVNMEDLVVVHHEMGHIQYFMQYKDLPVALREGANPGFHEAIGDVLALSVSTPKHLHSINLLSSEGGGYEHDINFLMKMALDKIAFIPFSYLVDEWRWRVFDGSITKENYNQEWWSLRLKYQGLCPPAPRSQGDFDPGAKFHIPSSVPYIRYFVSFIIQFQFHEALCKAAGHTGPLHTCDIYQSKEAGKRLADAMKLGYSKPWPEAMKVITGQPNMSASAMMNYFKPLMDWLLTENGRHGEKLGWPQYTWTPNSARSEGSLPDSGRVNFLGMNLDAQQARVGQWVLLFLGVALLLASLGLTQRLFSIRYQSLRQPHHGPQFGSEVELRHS
# [7] = target: T3, Alpha-2C adrenergic receptor (Homo sapiens, UniProt P18825); test: DRUGMATRIX: Adrenergic Alpha-2C radioligand binding (ligand: [3H] MK-912); type: cell membranes, Sf9, Membrane; conditions: sf9
# T3 sequence (P18825 whole entry): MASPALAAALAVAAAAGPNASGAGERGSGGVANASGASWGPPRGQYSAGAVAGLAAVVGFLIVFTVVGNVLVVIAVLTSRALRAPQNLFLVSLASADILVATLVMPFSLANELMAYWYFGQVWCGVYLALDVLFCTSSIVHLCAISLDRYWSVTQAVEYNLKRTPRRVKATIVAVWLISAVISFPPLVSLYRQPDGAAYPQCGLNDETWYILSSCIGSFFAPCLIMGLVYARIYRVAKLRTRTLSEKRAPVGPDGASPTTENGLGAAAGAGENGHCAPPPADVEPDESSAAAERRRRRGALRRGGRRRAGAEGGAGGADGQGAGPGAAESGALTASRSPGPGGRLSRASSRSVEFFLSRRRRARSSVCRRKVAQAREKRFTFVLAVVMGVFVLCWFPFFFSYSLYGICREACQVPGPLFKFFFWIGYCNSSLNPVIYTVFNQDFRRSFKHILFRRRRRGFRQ
# [8] = target: Voltage-gated inwardly rectifying potassium channel KCNH2 (Homo sapiens, UniProt Q12809); conditions: hek293; further: in other assays of this panel Not Active means under 50% inhibition at 10 µM
# Mu-type opioid receptor = Mu-type opioid receptor (Homo sapiens, UniProt P35372); test: DRUGMATRIX: Opiate mu (OP3, MOP) radioligand binding (ligand: [3H] Diprenorphine); type: cell membranes, CHO-K1, Membrane; conditions: cho-k1; Not Active = under 50% inhibition at 10 µM
# Mu-type opioid receptor, sequence (P35372 whole entry): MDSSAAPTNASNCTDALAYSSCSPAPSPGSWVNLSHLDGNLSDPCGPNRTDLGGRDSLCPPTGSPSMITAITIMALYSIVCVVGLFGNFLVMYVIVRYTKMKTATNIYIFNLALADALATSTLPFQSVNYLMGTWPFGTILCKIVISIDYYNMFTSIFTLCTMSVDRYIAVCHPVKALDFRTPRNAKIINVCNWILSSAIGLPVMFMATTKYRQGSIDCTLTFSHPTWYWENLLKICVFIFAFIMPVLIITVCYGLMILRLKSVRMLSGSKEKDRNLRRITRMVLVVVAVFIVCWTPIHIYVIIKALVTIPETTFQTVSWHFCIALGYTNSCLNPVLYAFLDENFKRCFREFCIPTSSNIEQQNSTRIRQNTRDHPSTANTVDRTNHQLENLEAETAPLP
# Beta-3 adrenergic receptor, sequence (P13945 whole entry): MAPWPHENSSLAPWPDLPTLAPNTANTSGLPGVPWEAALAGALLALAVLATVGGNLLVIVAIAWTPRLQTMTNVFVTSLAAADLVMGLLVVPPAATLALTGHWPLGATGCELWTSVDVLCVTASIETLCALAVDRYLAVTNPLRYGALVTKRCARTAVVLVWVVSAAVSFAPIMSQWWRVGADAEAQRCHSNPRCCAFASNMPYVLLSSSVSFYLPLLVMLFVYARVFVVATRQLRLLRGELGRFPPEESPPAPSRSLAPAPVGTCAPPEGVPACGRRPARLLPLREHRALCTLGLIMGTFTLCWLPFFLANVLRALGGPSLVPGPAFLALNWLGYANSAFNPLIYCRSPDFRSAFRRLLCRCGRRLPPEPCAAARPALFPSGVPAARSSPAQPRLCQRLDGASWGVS
# Substance-P receptor, sequence (P25103 whole entry): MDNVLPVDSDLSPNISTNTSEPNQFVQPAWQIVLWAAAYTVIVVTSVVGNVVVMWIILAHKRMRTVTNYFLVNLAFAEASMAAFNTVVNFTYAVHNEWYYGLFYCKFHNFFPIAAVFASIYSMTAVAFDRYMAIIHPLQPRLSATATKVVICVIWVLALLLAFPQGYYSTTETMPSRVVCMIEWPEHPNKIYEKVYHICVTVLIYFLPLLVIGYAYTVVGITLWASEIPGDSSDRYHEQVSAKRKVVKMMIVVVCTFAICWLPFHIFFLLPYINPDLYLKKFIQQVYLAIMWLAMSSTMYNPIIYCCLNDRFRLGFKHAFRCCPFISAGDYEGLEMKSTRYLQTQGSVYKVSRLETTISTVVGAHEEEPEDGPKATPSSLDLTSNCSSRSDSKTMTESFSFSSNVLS
# Prostaglandin G/H synthase 1, sequence (P23219 whole entry): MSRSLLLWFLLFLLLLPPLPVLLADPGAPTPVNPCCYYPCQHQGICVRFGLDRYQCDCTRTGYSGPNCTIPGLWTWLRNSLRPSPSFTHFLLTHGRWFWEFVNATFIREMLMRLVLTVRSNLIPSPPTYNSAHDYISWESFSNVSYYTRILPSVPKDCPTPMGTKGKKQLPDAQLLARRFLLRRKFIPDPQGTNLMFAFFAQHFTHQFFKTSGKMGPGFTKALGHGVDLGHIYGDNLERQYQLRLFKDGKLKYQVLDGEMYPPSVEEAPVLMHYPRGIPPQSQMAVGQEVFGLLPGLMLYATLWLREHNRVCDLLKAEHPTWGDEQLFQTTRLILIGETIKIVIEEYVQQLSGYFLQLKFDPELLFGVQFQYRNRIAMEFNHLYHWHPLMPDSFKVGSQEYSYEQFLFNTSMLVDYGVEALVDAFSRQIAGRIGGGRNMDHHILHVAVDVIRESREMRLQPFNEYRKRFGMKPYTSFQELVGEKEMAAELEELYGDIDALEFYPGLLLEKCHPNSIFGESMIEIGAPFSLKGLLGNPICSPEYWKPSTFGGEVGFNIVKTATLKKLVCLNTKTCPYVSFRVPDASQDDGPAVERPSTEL
# Cytochrome P450 2C19, sequence (P33261 whole entry): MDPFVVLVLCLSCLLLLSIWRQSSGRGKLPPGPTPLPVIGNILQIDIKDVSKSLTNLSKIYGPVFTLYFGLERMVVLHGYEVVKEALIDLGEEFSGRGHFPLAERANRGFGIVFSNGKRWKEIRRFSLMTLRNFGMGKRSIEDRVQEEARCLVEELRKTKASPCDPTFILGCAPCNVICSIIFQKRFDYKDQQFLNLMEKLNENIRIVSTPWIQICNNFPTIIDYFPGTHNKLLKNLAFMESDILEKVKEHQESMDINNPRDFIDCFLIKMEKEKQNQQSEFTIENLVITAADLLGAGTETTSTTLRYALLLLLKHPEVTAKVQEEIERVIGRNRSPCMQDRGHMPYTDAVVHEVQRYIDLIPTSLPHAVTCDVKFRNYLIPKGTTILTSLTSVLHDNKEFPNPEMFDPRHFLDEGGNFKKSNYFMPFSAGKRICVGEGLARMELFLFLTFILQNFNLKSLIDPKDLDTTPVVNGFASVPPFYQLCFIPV
# Voltage-gated inwardly rectifying potassium channel KCNH2, sequence (Q12809 whole entry): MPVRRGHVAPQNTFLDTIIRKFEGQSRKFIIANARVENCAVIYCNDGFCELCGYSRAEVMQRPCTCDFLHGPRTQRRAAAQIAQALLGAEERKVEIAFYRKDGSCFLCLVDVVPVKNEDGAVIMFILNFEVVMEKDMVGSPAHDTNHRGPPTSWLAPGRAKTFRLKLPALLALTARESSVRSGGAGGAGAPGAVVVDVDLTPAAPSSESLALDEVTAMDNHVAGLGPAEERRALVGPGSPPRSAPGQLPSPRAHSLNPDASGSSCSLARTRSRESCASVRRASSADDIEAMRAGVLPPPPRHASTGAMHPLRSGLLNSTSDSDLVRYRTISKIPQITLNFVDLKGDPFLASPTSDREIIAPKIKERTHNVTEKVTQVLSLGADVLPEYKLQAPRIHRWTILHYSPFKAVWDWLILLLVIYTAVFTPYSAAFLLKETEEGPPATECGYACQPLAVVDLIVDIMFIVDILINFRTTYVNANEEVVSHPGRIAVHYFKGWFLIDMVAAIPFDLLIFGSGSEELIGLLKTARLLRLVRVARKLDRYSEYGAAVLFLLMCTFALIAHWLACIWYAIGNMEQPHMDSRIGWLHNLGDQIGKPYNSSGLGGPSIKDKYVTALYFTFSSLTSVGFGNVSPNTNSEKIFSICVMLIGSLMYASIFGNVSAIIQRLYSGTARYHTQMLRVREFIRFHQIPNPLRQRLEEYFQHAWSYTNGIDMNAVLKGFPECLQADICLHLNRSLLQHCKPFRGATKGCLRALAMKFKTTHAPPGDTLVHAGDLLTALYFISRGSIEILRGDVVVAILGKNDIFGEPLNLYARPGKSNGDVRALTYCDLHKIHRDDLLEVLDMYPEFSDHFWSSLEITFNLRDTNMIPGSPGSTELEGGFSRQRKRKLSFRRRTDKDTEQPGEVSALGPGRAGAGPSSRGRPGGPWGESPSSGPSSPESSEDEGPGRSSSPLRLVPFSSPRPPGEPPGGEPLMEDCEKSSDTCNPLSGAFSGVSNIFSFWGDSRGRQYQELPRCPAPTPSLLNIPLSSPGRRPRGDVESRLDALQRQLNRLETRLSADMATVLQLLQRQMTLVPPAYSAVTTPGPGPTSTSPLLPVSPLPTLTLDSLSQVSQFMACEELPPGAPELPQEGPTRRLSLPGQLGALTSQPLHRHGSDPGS
SMILES,IC50 (Cytochrome P450 2C19),Ki (Cytochrome P450 2C19),IC50 [1],IC50 (Substance-P receptor),IC50 [2],Ki [2],IC50 [3],Ki [3],IC50 [4],Ki [4],IC50 (Endothelin-1 receptor),IC50 ([5]; read-out: IC50) [µM],IC50 [6],IC50 [7],IC50 [8],Ki [8],IC50 (Mu-type opioid receptor),IC50 ([5]; platelet)
COc1ccc2cc(CC(=O)O)ccc2c1,Not Active,Not Active,Not Active,Not Active,Not Active,Not Active,Not Active,Not Active,Not Active,Not Active,Not Active,4.11,Not Active,Not Active,Not Active,Not Active,Not Active,
CC=CC(=O)N(CC)c1ccccc1C,Not Active,Not Active,Not Active,Not Active,Not Active,Not Active,Not Active,Not Active,Not Active,Not Active,Not Active,,Not Active,Not Active,Not Active,Not Active,Not Active,Not Active
C=C1C(=O)O[C@@H]2C3O[C@]3(C)CC/C=C(\C)CC[C@@H]12 (some centres not stated),Not Active,Not Active,Not Active,Not Active,Not Active,Not Active,Not Active,Not Active,Not Active,Not Active,Not Active,,Not Active,Not Active,Not Active,Not Active,Not Active,Not Active
CC(/C=C1\SC(=S)N(CC(=O)O)C1=O)=C\c1ccccc1,Not Active,Not Active,Not Active,Not Active,Not Active,Not Active,Not Active,Not Active,Not Active,Not Active,Not Active,,Not Active,Not Active,Not Active,Not Active,Not Active,Not Active
COc1ccc2c(c1)c(CC(=O)OCC(=O)O)c(C)n2C(=O)c1ccc(Cl)cc1 [ACEMETACIN],Not Active,Not Active,Not Active,Not Active,Not Active,Not Active,Not Active,Not Active,Not Active,Not Active,Not Active,,Not Active,Not Active,Not Active,Not Active,Not Active,Not Active
CCCSc1ccc2nc(NC(=O)OC)[nH]c2c1 [ALBENDAZOLE],Not Active,Not Active,Not Active,Not Active,Not Active,Not Active,Not Active,Not Active,Not Active,Not Active,Not Active,,Not Active,Not Active,Not Active,Not Active,Not Active,Not Active
Cc1c(-c2ccccc2)oc2c(C(=O)OCCN3CCCCC3)cccc2c1=O [FLAVOXATE],Not Active,Not Active,Not Active,Not Active,Not Active,Not Active,Not Active,Not Active,Not Active,Not Active,Not Active,,Not Active,Not Active,,,Not Active,Not Active
Fc1ccc([C@@H]2CCNC[C@H]2COc2ccc3c(c2)OCO3)cc1 [PAROXETINE],Not Active,Not Active,Not Active,Not Active,Not Active,Not Active,Not Active,Not Active,Not Active,Not Active,Not Active,,Not Active,Not Active,,,Not Active,Not Active
COc1ccc(CN(CCN(C)C)c2ccccn2)cc1 [PYRILAMINE],Not Active,Not Active,Not Active,Not Active,Not Active,Not Active,Not Active,Not Active,Not Active,Not Active,Not Active,,Not Active,Not Active,,,Not Active,Not Active
